From patent US8937068B2, “Pyridopyrazine derivatives and their use” (Zentaris GmbH, priority 2005, dated 2015)

Assays:
[1] = test system: Erk → pRsk; assay: Cellular substrate phosphorylation (Western Blotting), Erk substrate pRsk; assay type: cell-based; conditions: 50 μM, 5 h
Method: This method can be used to predict whether the kinase modulator under study also achieves the desired effect in a cellular context, i.e. in this case, a substrate protein downstream of the target kinase is investigated for its phosphorylation status. For this purpose, the cells incubated with substance are lysed and the total protein separated on a reducing polyacrylamide gel. The proteins are then transferred to a PVDF membrane by means of Western Blotting and the substrate bands sought are made visible with specific antibodies and a suitable detection method. The substrate proteins downstream of the target kinases are detected simultaneously with a respectively special anti-phospho-antibody and at the same time a total antibody which recognizes the substrate total protein. This simultaneous measurement can be made using the duplex technology of the ODYSSEY imagers (LiCOR). The intensity of the total substrate bands is used for normalising or quantifying the phosphorylation inhibition or activation.
Suitable tumour cell lines (e.g. BxPC3, Hct116 or MDA MB468) were injected into six-well microtitre plates in a defined cell number (e.g. 350 000 cells/well for BxPC3 and Hct116) in the respective standard complete medium and then incubated overnight at 37° C., 5% CO2 and 95% air humidity. The cells were then incubated for a further 24 h under serum-reduced conditions i.e. in the respective medium but with only 0.25% serum. The test substances were prepared as stock solutions (10 mM) in DMSO and incubated with the cells in final concentrations of 5, 15.8 and 50 μM for 5 h. This was followed by cell lysis in 25 mM Tris, 150 mM NaCl, 10 mM Na-pyrophosphate, 2 mM EGTA, 25 mM β-glycerophosphate, 25 mM NaF, 10% glycerine, 0.75% NP-40, 100 μM NaVO4 buffer. Following protein quantification by means of BCA (bicinchonic acid protein assay kit, Sigma) Assay, protein quantities of about 20 μg per track were separated on a Lämmli polyacrylamide gel and then transferred to a PVDF membrane (Millipore) by means of Semi-Dry Western-Blotting at 0.8 mA/cm^2 for 1 h. This was followed by pre-hybridisation of the membrane for 1 hour in I-block reagent (Applied Biosystems) and incubation overnight with the specific antibodies. To determine the Erk and PI3K inhibition, the respectively downstream substrates Rsk1 were detected with the total antibody (Rsk #sc-231g C-21, Santa Cruz) and the phospho-antibody (Phospho-p90RSK (S380) #9341, NEB Cell Signalling) and Akt was detected with the total antibody (Akt1 #sc-1618 C-20, Santa Cruz) and the phospho-antibody (Phospho-Akt (Ser 473) #9271, NEB Cell Signaling). After washing the membrane, secondary antibody incubation was carried out with anti-rabbit IR Dye 800 (#611-732-127, Rockland) for the phospho-antibody and anti-goat Alexa Fluor 680 (#A-21081, Molecular Probes) for the total protein-antibody. After incubating for 30 min at room temperature in the dark, the hybridisation of the detection antibody on the membrane was detected by scanning in the ODYSSEY imager (LiCOR).
The reduction of the fluorescence intensity of the phospho-substrate bands (pRsk and pAkt) is given in the table below as % inhibition and relates to the following formula:
The band intensity (fluorescence intensity) of the respective non-inhibited (without substance) phospho-substrates was used as 100% control.

[2] = target: Erk2 (Homo sapiens, UniProt P28482); assay: Cell-free kinase assay (ALPHA technology), Erk2; assay type: biochemical; conditions: 10 μM ATP
Procedure, shortened: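 Recombinant tagged Erk2 kinase reactions were stopped with ALPHA bead mix […]. The signal was read after standing overnight. Controls were run in eight replicates and compounds in duplicate, and IC50 was fitted.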

Sequence of Erk2 (P28482 2-360 limits assumed): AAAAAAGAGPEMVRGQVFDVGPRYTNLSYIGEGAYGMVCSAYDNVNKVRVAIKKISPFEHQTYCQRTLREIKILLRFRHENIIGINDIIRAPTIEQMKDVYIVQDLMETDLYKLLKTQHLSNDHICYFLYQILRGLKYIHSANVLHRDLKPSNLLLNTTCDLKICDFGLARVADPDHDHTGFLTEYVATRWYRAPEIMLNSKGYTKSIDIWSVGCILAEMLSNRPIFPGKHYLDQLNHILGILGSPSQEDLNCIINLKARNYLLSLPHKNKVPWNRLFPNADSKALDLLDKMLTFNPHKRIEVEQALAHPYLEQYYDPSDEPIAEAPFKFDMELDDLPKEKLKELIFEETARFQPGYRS

Structure (SMILES)	IC50 [2] [nM]	Inhibition of cellular substrate phosphorylation Erk → pRsk [1] [%]	inhibition at 50 µM [1] [%]
CCNC(=O)Nc1ccc2ncc(-c3cnn(C)c3)nc2n1 [Compound 173, 1-Ethyl-3-[3-(1-methyl-1H-pyrazol-4-yl)-pyrido[2,3-b]pyrazin-6-yl]-urea]	107		90
CCNC(=O)Nc1ccc2ncc(Nc3ccc(C)cc3)nc2n1 [Compound 150, 1-Ethyl-3-(3-p-tolylamino-pyrido[2,3-b]pyrazin-6-yl)-urea]	18700		0
O=C(NCCCCO)Nc1ccc2ncc(-c3ccccc3)nc2n1 [Compound 146, 1-(4-Hydroxy-butyl)-3-(3-phenyl-pyrido[2,3-b]pyrazin-6-yl)-urea]	155		100

The remaining molecules from weak to strong by IC50 [2], led by results:

IC50 [2] [nM]	Structure (SMILES)	Inhibition of cellular substrate phosphorylation Erk → pRsk [1] [%]	inhibition at 50 µM [1] [%]
392	C=CCNC(=S)Nc1ccc2ncc(-c3ccc(O)cc3)nc2n1 [Compound 30, 1-allyl-3-[3-(4-hydroxy-phenyl)-pyrido[2,3-b]pyrazin-6-yl]-thiourea]		90
203	CCNC(=O)Nc1ccc2ncc(-c3ccc(O)c(OC)c3)nc2n1.Cc1ccc(S(=O)(=O)O)cc1 [Compound 183, 1-Ethyl-3-[3-(4-hydroxy-3-methoxy-phenyl)-pyrido[2,3-b]pyrazin-6-yl]-urea p-Toluolsulfonate]	80	
62	CCNC(=O)Nc1ccc2ncc(-c3ccc(O)c(OC)c3)nc2n1 [Compound 124, 1-Ethyl-3-[3-(4-hydroxy-3-methoxy-phenyl)-pyrido[2,3-b]pyrazin-6-yl]-urea]		90
